# According to ChEMBL document CHEMBL4649992, “Discovery of I-BRD9, a Selective Cell Active Chemical Probe for Bromodomain Containing Protein 9 Inhibition” (J Med Chem, 2016):
# How the values were obtained:
# [1] = target: Bromodomain-containing protein 2 (Homo sapiens) (UniProt P25440); settings: Compound concentration 10.0 uM, Protein concentration 2.0 uM
# [2] = target: Transcription intermediary factor 1-alpha (Homo sapiens) (UniProt O15164); settings: Compound concentration 10.0 uM, Protein concentration 2.0 uM
# [3] = target: Tyrosine-protein kinase BAZ1B (Homo sapiens) (UniProt Q9UIG0); settings: Compound concentration 10.0 uM, Protein concentration 2.0 uM
# [4] = target: Nuclear body protein SP140-like protein (Homo sapiens) (UniProt Q9H930); settings: Compound concentration 10.0 uM, Protein concentration 2.0 uM
# [5] = target: Chromatin remodeling regulator CECR2 (Homo sapiens) (UniProt Q9BXF3); settings: Compound concentration 10.0 uM, Protein concentration 2.0 uM
# [6] = target: Bromodomain-containing protein 9 (Homo sapiens) (UniProt Q9H8M2); test: Alphascreen assay. Domain start/stop: L14-Q143; settings: Compound concentration 0.25 uM, Protein concentration 5.0 uM
# [7] = target: Bromodomain adjacent to zinc finger domain protein 2B (Homo sapiens) (UniProt Q9UIF8); settings: Compound concentration 10.0 uM, Protein concentration 2.0 uM
# [8] = target: Bromodomain-containing protein 4 (Homo sapiens) (UniProt O60885); settings: Compound concentration 10.0 uM, Protein concentration 2.0 uM
# [9] = target: Nuclear body protein SP140 (Homo sapiens) (UniProt Q13342); settings: Compound concentration 10.0 uM, Protein concentration 2.0 uM
# [10] = target: Bromodomain testis-specific protein (Homo sapiens) (UniProt Q58F21); settings: Compound concentration 10.0 uM, Protein concentration 2.0 uM
# [11] = target: Protein polybromo-1 (Homo sapiens) (UniProt Q86U86); settings: Compound concentration 10.0 uM, Protein concentration 2.0 uM
# [12] = target: ATPase family AAA domain-containing protein 2 (Homo sapiens) (UniProt Q6PL18); settings: Compound concentration 10.0 uM, Protein concentration 2.0 uM
# [13] = target: SWI/SNF-related matrix-associated actin-dependent regulator of chromatin subfamily A member 2 (Homo sapiens) (UniProt P51531); settings: Compound concentration 10.0 uM, Protein concentration 2.0 uM
# [14] = target: Bromodomain-containing protein 4 (Homo sapiens) (UniProt O60885); settings: Compound concentration 10.0 uM, Protein concentration 2.0 uM; remark: listed apart in the source
# [15] = target: Bromodomain adjacent to zinc finger domain protein 2A (Homo sapiens) (UniProt Q9UIF9); settings: Compound concentration 10.0 uM, Protein concentration 2.0 uM
# [16] = target: Bromodomain-containing protein 9 (Homo sapiens) (UniProt Q9H8M2); settings: Compound concentration 10.0 uM, Protein concentration 2.0 uM
# [17] = target: Transcription initiation factor TFIID subunit 1 (Homo sapiens) (UniProt P21675); settings: Compound concentration 10.0 uM, Protein concentration 2.0 uM
# [18] = target: Bromodomain-containing protein 7 (Homo sapiens) (UniProt Q9NPI1); settings: Compound concentration 10.0 uM, Protein concentration 2.0 uM
# [19] = target: Transcription intermediary factor 1-beta (Homo sapiens) (UniProt Q13263); settings: Compound concentration 10.0 uM, Protein concentration 2.0 uM
# [20] = target: Protein polybromo-1 (Homo sapiens) (UniProt Q86U86); settings: Compound concentration 10.0 uM, Protein concentration 2.0 uM; remark: listed apart in the source
# [21] = target: Transcription intermediary factor 1-alpha (Homo sapiens) (UniProt O15164); settings: Compound concentration 10.0 uM, Protein concentration 2.0 uM; remark: listed apart in the source
# [22] = target: Chromatin remodeling regulator CECR2 (Homo sapiens) (UniProt Q9BXF3); settings: Protein concentration 19.0 uM
# [23] = target: Histone acetyltransferase KAT2B (Homo sapiens) (UniProt Q92831); settings: Compound concentration 10.0 uM, Protein concentration 2.0 uM
# [24] = target: Transcription initiation factor TFIID subunit 1-like (Homo sapiens) (UniProt Q8IZX4); settings: Compound concentration 10.0 uM, Protein concentration 2.0 uM
# [25] = target: Protein polybromo-1 (Homo sapiens) (UniProt Q86U86); settings: Compound concentration 10.0 uM, Protein concentration 2.0 uM; remark: listed apart in the source
# [26] = target: Histone acetyltransferase p300 (Homo sapiens) (UniProt Q09472); settings: Compound concentration 10.0 uM, Protein concentration 2.0 uM
# [27] = target: CREB-binding protein (Homo sapiens) (UniProt Q92793); settings: Compound concentration 10.0 uM, Protein concentration 2.0 uM
# [28] = target: Protein polybromo-1 (Homo sapiens) (UniProt Q86U86); settings: Compound concentration 10.0 uM, Protein concentration 2.0 uM; remark: listed apart in the source
# [29] = target: Transcription initiation factor TFIID subunit 1 (Homo sapiens) (UniProt P21675); settings: Compound concentration 10.0 uM, Protein concentration 2.0 uM; remark: listed apart in the source
# Peregrin (Homo sapiens) [30] = target: T1, Peregrin (Homo sapiens) (UniProt P55201); settings: Compound concentration 10.0 uM, Protein concentration 2.0 uM
# T1 sequence (whole entry): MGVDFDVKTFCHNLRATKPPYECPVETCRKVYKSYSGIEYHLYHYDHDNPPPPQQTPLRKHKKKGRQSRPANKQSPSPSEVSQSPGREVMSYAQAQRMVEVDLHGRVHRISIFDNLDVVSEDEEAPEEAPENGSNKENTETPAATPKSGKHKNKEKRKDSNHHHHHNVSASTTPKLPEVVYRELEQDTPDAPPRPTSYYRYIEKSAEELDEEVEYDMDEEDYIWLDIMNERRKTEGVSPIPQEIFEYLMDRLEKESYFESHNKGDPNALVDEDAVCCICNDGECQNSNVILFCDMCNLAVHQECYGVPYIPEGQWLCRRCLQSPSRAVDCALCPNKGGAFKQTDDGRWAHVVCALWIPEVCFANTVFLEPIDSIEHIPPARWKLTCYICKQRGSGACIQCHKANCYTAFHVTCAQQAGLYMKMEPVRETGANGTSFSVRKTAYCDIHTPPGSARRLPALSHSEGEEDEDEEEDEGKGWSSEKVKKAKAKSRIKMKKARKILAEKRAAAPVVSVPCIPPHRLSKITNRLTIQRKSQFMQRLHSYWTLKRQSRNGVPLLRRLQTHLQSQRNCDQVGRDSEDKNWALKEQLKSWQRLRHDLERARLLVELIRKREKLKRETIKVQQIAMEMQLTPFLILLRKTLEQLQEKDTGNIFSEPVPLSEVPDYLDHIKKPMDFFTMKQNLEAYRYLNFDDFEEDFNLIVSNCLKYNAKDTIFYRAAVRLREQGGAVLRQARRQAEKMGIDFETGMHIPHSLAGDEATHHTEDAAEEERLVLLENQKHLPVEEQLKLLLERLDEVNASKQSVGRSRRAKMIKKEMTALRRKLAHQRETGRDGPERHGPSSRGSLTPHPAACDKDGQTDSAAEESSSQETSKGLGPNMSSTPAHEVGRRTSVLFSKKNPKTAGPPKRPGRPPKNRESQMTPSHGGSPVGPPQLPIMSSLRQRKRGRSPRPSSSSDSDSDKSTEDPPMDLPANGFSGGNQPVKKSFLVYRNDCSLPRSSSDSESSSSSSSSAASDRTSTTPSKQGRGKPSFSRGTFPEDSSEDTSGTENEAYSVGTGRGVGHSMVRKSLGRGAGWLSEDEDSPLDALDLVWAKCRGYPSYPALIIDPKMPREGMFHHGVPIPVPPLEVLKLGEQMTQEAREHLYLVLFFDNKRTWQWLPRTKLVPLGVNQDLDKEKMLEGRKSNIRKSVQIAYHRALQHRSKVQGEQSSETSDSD
# [31] = target: Protein polybromo-1 (Homo sapiens) (UniProt Q86U86); settings: Compound concentration 10.0 uM, Protein concentration 2.0 uM; remark: listed apart in the source
# [32] = target: Bromodomain-containing protein 3 (Homo sapiens) (UniProt Q15059); settings: Compound concentration 10.0 uM, Protein concentration 2.0 uM
# [33] = target: Histone-lysine N-methyltransferase ASH1L (Homo sapiens) (UniProt Q9NR48); settings: Compound concentration 10.0 uM, Protein concentration 2.0 uM
# [34] = target: Histone acetyltransferase KAT2A (Homo sapiens) (UniProt Q92830); settings: Compound concentration 10.0 uM, Protein concentration 2.0 uM
# [35] = target: Transcription initiation factor TFIID subunit 1-like (Homo sapiens) (UniProt Q8IZX4); settings: Compound concentration 10.0 uM, Protein concentration 2.0 uM; remark: listed apart in the source
# [36] = target: Bromodomain and PHD finger-containing protein 3 (Homo sapiens) (UniProt Q9ULD4); settings: Compound concentration 10.0 uM, Protein concentration 2.0 uM
# [37] = target: Bromodomain-containing protein 1 (Homo sapiens) (UniProt O95696); settings: Compound concentration 10.0 uM, Protein concentration 2.0 uM
# [38] = target: Bromodomain and WD repeat-containing protein 1 (Homo sapiens) (UniProt Q9NSI6); settings: Compound concentration 10.0 uM, Protein concentration 2.0 uM
# [39] = target: Bromodomain testis-specific protein (Homo sapiens) (UniProt Q58F21); settings: Compound concentration 10.0 uM, Protein concentration 2.0 uM; remark: listed apart in the source
# [40] = target: Bromodomain adjacent to zinc finger domain protein 1A (Homo sapiens) (UniProt Q9NRL2); settings: Compound concentration 10.0 uM, Protein concentration 2.0 uM
# [41] = target: Nucleosome-remodeling factor subunit BPTF (Homo sapiens) (UniProt Q12830); settings: Compound concentration 10.0 uM, Protein concentration 2.0 uM
# [42] = target: Histone-lysine N-methyltransferase 2A (Homo sapiens) (UniProt Q03164); settings: Compound concentration 10.0 uM, Protein concentration 2.0 uM
# [43] = target: Bromodomain-containing protein 2 (Homo sapiens) (UniProt P25440); settings: Compound concentration 10.0 uM, Protein concentration 2.0 uM; remark: listed apart in the source
# [44] = target: Bromodomain and WD repeat-containing protein 3 (Homo sapiens) (UniProt Q6RI45); settings: Compound concentration 10.0 uM, Protein concentration 2.0 uM
# [45] = target: PH-interacting protein (Homo sapiens) (UniProt Q8WWQ0); settings: Compound concentration 10.0 uM, Protein concentration 2.0 uM
# Peregrin (Homo sapiens) [46] = target: T1, Peregrin (Homo sapiens); settings: Compound concentration 10.0 uM, Protein concentration 2.0 uM; remark: listed apart in the source
# [47] = target: ATPase family AAA domain-containing protein 2B (Homo sapiens) (UniProt Q9ULI0); settings: Compound concentration 10.0 uM, Protein concentration 2.0 uM
# [48] = target: Bromodomain-containing protein 3 (Homo sapiens) (UniProt Q15059); settings: Compound concentration 10.0 uM, Protein concentration 2.0 uM; remark: listed apart in the source
# [49] = target: Nucleosome-remodeling factor subunit BPTF (Homo sapiens) (UniProt Q12830)
# Description: Alphascreen assay. Domain start/stop: S2791-H2911
# [50] = target: SWI/SNF-related matrix-associated actin-dependent regulator of chromatin subfamily A member 4 (Homo sapiens) (UniProt P51532); settings: Compound concentration 10.0 uM, Protein concentration 2.0 uM
# [51] = target: Protein polybromo-1 (Homo sapiens) (UniProt Q86U86); settings: Compound concentration 10.0 uM, Protein concentration 2.0 uM; remark: listed apart in the source
# Peregrin (Homo sapiens) [52] = target: T1, Peregrin (Homo sapiens); test: Alphascreen assay. Domain start/stop: M626-G740; settings: Compound concentration 4.0 uM, Protein concentration 50.0 uM
# Chain of Chromatin remodeling regulator CECR2 (Homo sapiens) (Q9BXF3 whole entry, looked up): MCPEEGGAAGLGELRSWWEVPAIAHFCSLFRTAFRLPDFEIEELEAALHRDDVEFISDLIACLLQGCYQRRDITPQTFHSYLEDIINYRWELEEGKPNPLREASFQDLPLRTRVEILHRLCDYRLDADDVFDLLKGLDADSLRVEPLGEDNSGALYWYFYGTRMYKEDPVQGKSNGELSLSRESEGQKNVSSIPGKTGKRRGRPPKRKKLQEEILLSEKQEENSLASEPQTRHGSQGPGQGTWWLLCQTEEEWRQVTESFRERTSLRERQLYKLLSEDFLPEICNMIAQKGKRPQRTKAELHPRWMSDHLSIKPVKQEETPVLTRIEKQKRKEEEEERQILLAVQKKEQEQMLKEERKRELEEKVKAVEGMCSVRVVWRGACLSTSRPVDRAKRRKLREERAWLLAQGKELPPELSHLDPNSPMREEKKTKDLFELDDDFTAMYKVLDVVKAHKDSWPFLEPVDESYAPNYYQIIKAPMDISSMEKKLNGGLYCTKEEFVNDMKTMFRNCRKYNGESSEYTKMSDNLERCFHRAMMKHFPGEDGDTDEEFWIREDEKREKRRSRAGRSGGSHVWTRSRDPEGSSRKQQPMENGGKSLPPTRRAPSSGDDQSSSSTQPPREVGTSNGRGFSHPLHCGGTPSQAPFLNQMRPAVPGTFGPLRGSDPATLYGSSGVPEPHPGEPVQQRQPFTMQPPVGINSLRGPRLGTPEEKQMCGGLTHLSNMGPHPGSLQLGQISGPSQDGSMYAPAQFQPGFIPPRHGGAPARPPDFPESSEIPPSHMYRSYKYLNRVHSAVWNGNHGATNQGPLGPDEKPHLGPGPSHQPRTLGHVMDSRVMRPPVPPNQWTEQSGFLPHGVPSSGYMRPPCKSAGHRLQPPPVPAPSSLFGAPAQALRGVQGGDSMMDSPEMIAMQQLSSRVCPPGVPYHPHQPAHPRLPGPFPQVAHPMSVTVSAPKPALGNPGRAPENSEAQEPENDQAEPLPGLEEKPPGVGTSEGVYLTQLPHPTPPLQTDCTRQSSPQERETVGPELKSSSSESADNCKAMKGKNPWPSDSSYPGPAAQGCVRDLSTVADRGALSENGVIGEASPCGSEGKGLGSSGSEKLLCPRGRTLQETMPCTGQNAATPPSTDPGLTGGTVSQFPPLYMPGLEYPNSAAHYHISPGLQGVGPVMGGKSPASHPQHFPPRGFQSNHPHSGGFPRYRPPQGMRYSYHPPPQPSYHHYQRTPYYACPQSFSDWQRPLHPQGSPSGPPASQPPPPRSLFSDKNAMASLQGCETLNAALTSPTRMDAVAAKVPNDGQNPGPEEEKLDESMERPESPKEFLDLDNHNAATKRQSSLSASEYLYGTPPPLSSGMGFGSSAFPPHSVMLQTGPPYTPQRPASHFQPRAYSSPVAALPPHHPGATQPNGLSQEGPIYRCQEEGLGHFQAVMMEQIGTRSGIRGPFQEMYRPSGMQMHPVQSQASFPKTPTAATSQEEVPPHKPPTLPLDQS
# Chain of Protein polybromo-1 (Homo sapiens) (Q86U86 whole entry, the tested form may be a part): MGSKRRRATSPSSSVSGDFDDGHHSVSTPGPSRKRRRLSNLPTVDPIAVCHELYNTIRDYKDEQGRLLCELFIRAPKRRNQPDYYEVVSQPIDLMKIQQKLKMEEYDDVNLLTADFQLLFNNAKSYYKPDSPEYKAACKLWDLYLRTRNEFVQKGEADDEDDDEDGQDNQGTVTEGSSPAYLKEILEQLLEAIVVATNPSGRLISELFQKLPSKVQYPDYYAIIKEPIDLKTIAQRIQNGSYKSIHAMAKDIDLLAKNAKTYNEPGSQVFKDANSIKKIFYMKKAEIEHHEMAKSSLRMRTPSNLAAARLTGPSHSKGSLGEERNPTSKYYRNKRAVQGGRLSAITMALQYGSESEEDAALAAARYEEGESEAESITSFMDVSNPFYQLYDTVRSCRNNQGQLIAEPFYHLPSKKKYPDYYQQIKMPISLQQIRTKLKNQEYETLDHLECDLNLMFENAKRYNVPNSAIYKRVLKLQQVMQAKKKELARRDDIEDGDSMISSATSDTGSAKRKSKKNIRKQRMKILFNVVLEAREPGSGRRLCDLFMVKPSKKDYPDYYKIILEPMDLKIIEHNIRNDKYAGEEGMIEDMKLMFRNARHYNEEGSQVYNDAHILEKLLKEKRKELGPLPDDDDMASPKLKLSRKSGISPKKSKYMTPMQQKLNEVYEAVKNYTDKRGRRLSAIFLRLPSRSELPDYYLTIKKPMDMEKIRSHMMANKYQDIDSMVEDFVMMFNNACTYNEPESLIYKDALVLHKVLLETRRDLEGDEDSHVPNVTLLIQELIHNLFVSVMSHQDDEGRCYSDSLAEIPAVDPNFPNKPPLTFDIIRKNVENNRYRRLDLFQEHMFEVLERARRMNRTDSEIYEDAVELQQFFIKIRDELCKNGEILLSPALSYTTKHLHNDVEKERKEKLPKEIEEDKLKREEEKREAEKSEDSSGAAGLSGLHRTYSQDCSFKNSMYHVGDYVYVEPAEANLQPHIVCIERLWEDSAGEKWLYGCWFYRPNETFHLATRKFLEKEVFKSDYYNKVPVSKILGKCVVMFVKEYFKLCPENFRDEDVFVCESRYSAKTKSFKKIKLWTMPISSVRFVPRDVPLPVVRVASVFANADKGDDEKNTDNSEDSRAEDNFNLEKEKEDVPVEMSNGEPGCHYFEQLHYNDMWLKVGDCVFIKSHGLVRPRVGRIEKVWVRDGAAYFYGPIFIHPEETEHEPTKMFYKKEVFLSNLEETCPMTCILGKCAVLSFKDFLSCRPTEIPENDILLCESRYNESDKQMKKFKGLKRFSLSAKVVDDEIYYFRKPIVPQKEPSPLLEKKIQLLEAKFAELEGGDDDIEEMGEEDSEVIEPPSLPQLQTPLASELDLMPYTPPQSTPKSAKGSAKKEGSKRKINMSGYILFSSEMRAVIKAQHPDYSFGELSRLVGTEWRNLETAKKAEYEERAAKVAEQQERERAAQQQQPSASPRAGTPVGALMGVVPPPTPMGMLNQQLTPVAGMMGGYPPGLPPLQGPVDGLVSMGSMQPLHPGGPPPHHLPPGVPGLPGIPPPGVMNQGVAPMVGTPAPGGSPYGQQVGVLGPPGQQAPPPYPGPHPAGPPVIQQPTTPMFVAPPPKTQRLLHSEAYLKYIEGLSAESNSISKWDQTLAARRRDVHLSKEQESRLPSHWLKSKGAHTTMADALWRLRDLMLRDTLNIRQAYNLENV
# Chain of Transcription initiation factor TFIID subunit 1-like (Homo sapiens) (Q8IZX4 whole entry): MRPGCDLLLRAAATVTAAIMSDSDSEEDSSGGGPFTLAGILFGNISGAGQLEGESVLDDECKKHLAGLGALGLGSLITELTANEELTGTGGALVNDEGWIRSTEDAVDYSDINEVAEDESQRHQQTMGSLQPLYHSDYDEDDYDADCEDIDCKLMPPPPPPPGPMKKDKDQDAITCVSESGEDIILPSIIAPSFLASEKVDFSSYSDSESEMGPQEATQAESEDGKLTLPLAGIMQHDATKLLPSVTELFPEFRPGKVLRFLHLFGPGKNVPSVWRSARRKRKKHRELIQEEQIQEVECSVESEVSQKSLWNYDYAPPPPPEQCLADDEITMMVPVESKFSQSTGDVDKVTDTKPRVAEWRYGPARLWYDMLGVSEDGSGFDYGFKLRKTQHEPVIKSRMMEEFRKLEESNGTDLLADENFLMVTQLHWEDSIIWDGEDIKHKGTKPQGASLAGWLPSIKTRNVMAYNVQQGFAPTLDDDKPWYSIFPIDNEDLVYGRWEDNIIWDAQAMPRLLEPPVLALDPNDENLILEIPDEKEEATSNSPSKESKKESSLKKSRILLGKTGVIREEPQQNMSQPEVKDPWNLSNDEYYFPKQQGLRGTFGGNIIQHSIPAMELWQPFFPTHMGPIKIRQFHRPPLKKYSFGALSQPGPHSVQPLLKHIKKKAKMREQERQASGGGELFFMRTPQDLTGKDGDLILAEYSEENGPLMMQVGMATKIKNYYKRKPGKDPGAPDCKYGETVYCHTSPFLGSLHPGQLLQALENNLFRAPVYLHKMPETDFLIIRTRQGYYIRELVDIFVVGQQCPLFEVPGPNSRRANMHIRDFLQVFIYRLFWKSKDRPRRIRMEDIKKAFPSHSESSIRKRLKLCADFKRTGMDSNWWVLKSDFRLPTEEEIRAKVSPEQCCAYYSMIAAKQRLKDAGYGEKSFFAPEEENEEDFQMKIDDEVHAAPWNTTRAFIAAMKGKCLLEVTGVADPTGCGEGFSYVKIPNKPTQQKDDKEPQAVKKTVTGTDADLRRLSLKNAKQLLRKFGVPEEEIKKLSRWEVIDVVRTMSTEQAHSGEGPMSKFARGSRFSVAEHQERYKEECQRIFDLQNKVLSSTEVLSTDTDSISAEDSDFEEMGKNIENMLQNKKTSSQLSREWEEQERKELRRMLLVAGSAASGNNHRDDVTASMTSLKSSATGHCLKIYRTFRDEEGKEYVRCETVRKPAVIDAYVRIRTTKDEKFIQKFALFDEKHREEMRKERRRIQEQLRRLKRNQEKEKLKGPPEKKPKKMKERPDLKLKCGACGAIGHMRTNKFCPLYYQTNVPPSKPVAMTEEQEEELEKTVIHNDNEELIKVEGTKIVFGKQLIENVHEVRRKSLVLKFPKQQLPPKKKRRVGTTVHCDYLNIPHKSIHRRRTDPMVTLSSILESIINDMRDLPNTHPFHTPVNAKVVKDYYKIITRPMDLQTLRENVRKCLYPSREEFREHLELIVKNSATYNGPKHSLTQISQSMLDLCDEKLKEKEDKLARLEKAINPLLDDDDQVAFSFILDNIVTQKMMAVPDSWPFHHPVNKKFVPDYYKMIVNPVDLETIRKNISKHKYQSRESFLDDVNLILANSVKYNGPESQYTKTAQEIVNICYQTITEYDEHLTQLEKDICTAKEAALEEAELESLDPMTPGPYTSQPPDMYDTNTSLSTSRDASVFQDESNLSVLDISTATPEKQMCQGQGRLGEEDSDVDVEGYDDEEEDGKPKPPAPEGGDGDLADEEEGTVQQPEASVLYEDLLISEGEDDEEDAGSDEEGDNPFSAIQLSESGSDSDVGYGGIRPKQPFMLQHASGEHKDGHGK
smiles,measurement,setting,value
CCn1cc(-c2cccc(C(F)(F)F)c2)c2sc(C(=N)NC3CCS(=O)(=O)CC3)cc2c1=O,ΔTm,[1],1.39 °C
same,ΔTm,[2],1.86 °C
same,ΔTm,[3],0.68 °C
same,ΔTm,[4],3 °C
same,ΔTm,[5],9.43 °C
same,inhibition,[6],94.3%
same,ΔTm,[7],0.84 °C
same,ΔTm,[8],3.6 °C
same,ΔTm,[9],1.36 °C
same,ΔTm,[10],1.74 °C
same,ΔTm,[11],0.69 °C
same,ΔTm,[12],0.99 °C
same,ΔTm,[13],0.72 °C
same,ΔTm,[14],1.92 °C
same,ΔTm,[15],0.67 °C
same,ΔTm,[16],14.4 °C
same,ΔTm,[17],0.5 °C
same,ΔTm,[18],11.1 °C
same,ΔTm,[19],0.66 °C
same,ΔTm,[20],0.74 °C
same,ΔTm,[21],1.09 °C
same,inhibition,[22]; Compound concentration 0.25 uM,4.99%
same,inhibition,[22]; Compound concentration 4.0 uM,99.5%
same,ΔTm,[23],0.36 °C
same,ΔTm,[24],0.9 °C
same,ΔTm,[25],0.63 °C
same,ΔTm,[26],6.07 °C
same,ΔTm,[27],5.94 °C
same,ΔTm,[28],0.54 °C
same,ΔTm,[29],0.49 °C
same,ΔTm,Peregrin (Homo sapiens) [30],2.66 °C
same,ΔTm,[31],0.36 °C
same,ΔTm,[32],1.79 °C
same,ΔTm,[33],1.17 °C
same,ΔTm,[34],1.26 °C
same,ΔTm,[35],0.59 °C
same,ΔTm,[36],1.17 °C
same,ΔTm,[37],0.98 °C
same,ΔTm,[38],0.71 °C
same,ΔTm,[39],1.37 °C
same,ΔTm,[40],0.42 °C
same,ΔTm,[41],0.58 °C
same,ΔTm,[42],0.44 °C
same,ΔTm,[43],2.54 °C
same,ΔTm,[44],2.31 °C
same,ΔTm,[45],0.95 °C
same,ΔTm,Peregrin (Homo sapiens) [46],1.32 °C
same,ΔTm,[47],0.97 °C
same,ΔTm,[48],2.77 °C
same,inhibition,"[49]; Compound concentration 0.25 uM, Protein concentration 20.0 uM",-2.87%
same,inhibition,"[49]; Compound concentration 4.0 uM, Protein concentration 19.0 uM",-1.93%
same,ΔTm,[50],0.68 °C
same,ΔTm,[51],0.36 °C
same,inhibition,Peregrin (Homo sapiens) [52],18.8%
